Experimental data as given in paper PMC11602940, “Assessing multi-target antiviral and antioxidant activities of natural compounds against SARS-CoV-2: an integrated in vitro and in silico study” (Bioresources and Bioprocessing, 2024).
Values after ≈ are worked out from the molar mass of the structure shown.

Experiments:
SARS-CoV-2 = type: cell-based
[1] = ABTS radical cation scavenging activity
Procedure: The activity of scavenging ABTS radical cation was assessed across various concentrations, and the outcomes were juxtaposed with those obtained from standard materials. The selected compounds and vitamin C were evaluated at corresponding concentrations, following the methodology outlined in a prior study (AlBalawi et al. [2023]). Using the absorbance reading at 734 nm, the percentage of ABTS radical cation scavenging activity was computed using the formula: %ABTSradicalcationscavengingactivity=1-AsampleAsampleAcontrolAcontrol×100TopofForm

[2] = Cupric ion reducing antioxidant capacity assay (CUPRAC)
Procedure: The CUPRAC assay evaluates the ability of antioxidants to reduce cupric ions (Cu^2⁺) to cuprous ions (Cu^1⁺), forming a stable colored complex with neocuproine. For the assay, a CUPRAC reagent is prepared by mixing 10 mL of 10 mM copper(II) chloride (CuCl₂), 10 mL of 7.5 mM neocuproine, and 10 mL of ammonium acetate buffer (pH 7.0). […] Trolox is again used as the positive control and prepared at the same concentrations. For the assay, 1 mL of each sample concentration or Trolox is mixed with 1 mL of CUPRAC reagent in a 96-well plate or test tube. The reaction mixture is incubated at room temperature for 30 min to allow a complete reduction of Cu^2⁺ to Cu^1⁺. The absorbance is then measured at 450 nm using a UV–visible spectrophotometer. The antioxidant capacity is determined by comparing the absorbance to a Trolox standard curve, and the results were expressed as µmol Trolox equivalents/g of the sample. All measurements are performed in triplicate.

[3] = Ferric reducing antioxidant power assay (FRAP)
Procedure: The FRAP assay is based on the reduction of ferric ions (Fe^3⁺) to ferrous ions (Fe^2⁺) in the presence of antioxidants. The reduced Fe^2⁺ forms a blue-colored complex with 2,4,6-tripyridyl-s-triazine (TPTZ), and the intensity of the color is directly proportional to the reducing power of the sample, which can be quantified spectrophotometrically. For the assay, an acetate buffer (300 mM, pH 3.6) is prepared by dissolving […] in 1 L of distilled water. The TPTZ solution (10 mM) is dissolved in 40 mM HCl, and the ferric chloride solution (FeCl₃, 20 mM) is prepared separately. The FRAP reagent is freshly prepared before the assay by mixing 10 parts acetate buffer, 1 part TPTZ solution, and 1 part FeCl₃ solution. This reagent is kept at 37 °C to ensure its stability during the reaction. For the sample preparation, different concentrations of samples were dissolved in methanol. Trolox, a well-known antioxidant, is used as the positive control and prepared at the same concentrations for comparison. To conduct the assay, 100 µL of each sample or Trolox solution is mixed with 3 mL of freshly prepared FRAP reagent in a 96-well plate or test tube. The mixtures are incubated at 37 °C for 30 min, allowing the antioxidants in the samples to reduce the Fe^3⁺ ions to Fe^2⁺. After incubation, the absorbance of the resulting blue-colored complex is measured at 593 nm using a UV–visible spectrophotometer. The FRAP value of each sample is calculated by comparing the absorbance to a standard curve generated using known concentrations of ferrous sulfate (FeSO₄). The antioxidant capacity is expressed as µmol Fe^2⁺ equivalents/g of the sample. The experiment included three separate readings for every measurement.

Vero CCL-81 cells [4] = assay: MTT cytotoxicity assay; type: cell-based; conditions: 48 h
Procedure: An MTT (3-[4,5-dimethylthiazol-2-yl]-2,5 diphenyl tetrazolium bromide) assay was used to measure the effects of the selected compounds on Vero CCL-81 cells to ascertain the cytotoxicity of the compounds (Njeru and Muema [2021]; El-Shehawy et al. [2023]). To summarize, Vero CCL-81 cells were seeded in 96-well plates with 1.0 × 10^4 cells per well in DMEM supplemented with 2% FBS at a density of 1.0 × 10^4 cells per well. In the following step, the plates were incubated at 37 °C with 5% CO2 for 24 h before they were collected. A dilution of 150 µL of compounds was added in quadruplicate to each well after the incubation, and the wells were kept at 37 °C with 5% CO2 for 48 h. After the PBS was added to each well, a final step was to add 30 µL of MTT, remove the supernatants, and wash with PBS twice. A 2 h incubation period was conducted after MTT addition, at 37 °C, using 5% CO2, and it was protected from light for 2 h. A 100 µL/well DMSO solution was added to the wells to dissolve the formazan crystals (El-Sewedy et al. [2023]). Positive controls (cells treated with a known cytotoxic agent) and negative controls (untreated cells) were included in each experiment and were in triplicate.

Vero CCL-81 cells [5] = assay: Dose-dependent assay (Chou-Talalay, CompuSyn) from MTT data; type: cell-based
Procedure: The compounds were analyzed using MTT assay data. By applying the Chou-Talalay method, the dose-dependent effect was calculated (Elwakeel et al. [2019]). This calculation was performed using CompuSyn software. The dose–effect curves were created for both single treatments, and the fraction affected (Fa) values were determined for each dose and corresponding effect as previously reported (El-Sewedy et al. [2023]). The dose-dependent assay was carried out in triplicate to guarantee reproducibility.

For CCC(CC)COC(=O)[C@H](C)N[P@](=O)(OC[C@H]1O[C@@](C#N)(c2ccc3c(N)ncnn23)[C@H](O)[C@@H]1O)Oc1ccccc1 [RVD, Remdesivir, reference compound], the “decrease in SARS-CoV-2 viral titer” value (SARS-CoV-2) was 100%.

In the case of Cc1c(C)c2c(c(C)c1O)CCC(C)(C(=O)O)O2 (stereo not shown) [Trolox, reference compound], the “ABTS ± SD” value ([1]; 1000 µg/mL) is reported as 1300.00 ± 22.00 μmol Trolox eq/g, the “CUPRAC ± SD” value ([2]; 1000 µg/mL) is reported as 1100.00 ± 17.50 μmol Trolox eq/g and the “FRAP ± SD” value ([3]; 1000 µg/mL) is reported as 1200.00 ± 20.00 μmol Fe^2⁺ eq/g.

For O=c1c(O)c(-c2ccc(O)c(O)c2)oc2cc(O)cc(O)c12 [Quercetin], the “concentration to which antiviral properties were limited” value (SARS-CoV-2) was 100 µg/mL, the “effect on SARS-CoV-2 viral titer” value (SARS-CoV-2) was “no noticeable change in viral titer” and the “ABTS ± SD” value ([1]; 10 µg/mL) was 130.40 ± 4.50 μmol Trolox eq/g. For the same compound, the “ABTS ± SD” value ([1]; 20 µg/mL) was 210.10 ± 6.00 μmol Trolox eq/g, the “ABTS ± SD” value ([1]; 40 µg/mL) was 360.40 ± 8.00 μmol Trolox eq/g and the “ABTS ± SD” value ([1]; 80 µg/mL) was 620.20 ± 11.50 μmol Trolox eq/g. The “ABTS ± SD” value ([1]; 100 µg/mL) was 820.30 ± 14.00 μmol Trolox eq/g, the IC50 (Vero CCL-81 cells [4]) was 55.2 µg/mL (≈ 183 µM) and the “CUPRAC ± SD” value ([2]; 10 µg/mL) was 115.25 ± 3.70 μmol Trolox eq/g. The “CUPRAC ± SD” value ([2]; 20 µg/mL) was 190.20 ± 5.00 μmol Trolox eq/g, the “CUPRAC ± SD” value ([2]; 40 µg/mL) was 340.30 ± 7.00 μmol Trolox eq/g and the “CUPRAC ± SD” value ([2]; 80 µg/mL) was 590.10 ± 9.50 μmol Trolox eq/g. The “CUPRAC ± SD” value ([2]; 100 µg/mL) was 780.55 ± 11.20 μmol Trolox eq/g, the “Dose at fraction affected (Fa)” value (Vero CCL-81 cells [5]; Fa 0.5, 48 h treatment) was 12.0260 and the “Dose at fraction affected (Fa)” value (Vero CCL-81 cells [5]; Fa 0.75, 48 h treatment) was 46.3852. The “Dose at fraction affected (Fa)” value (Vero CCL-81 cells [5]; Fa 0.9, 48 h treatment) was 178.911, the “Dose at fraction affected (Fa)” value (Vero CCL-81 cells [5]; Fa 0.95, 48 h treatment) was 448.103 and the “Dose at fraction affected (Fa)” value (Vero CCL-81 cells [5]; Fa 0.97, 48 h treatment) was 861.173. For the same compound, the “FRAP ± SD” value ([3]; 10 µg/mL) was 120.30 ± 4.00 μmol Fe^2⁺ eq/g, the “FRAP ± SD” value ([3]; 20 µg/mL) was 200.15 ± 5.20 μmol Fe^2⁺ eq/g and the “FRAP ± SD” value ([3]; 40 µg/mL) was 350.45 ± 7.50 μmol Fe^2⁺ eq/g. For the same compound, the “FRAP ± SD” value ([3]; 80 µg/mL) was 600.55 ± 10.10 μmol Fe^2⁺ eq/g and the “FRAP ± SD” value ([3]; 100 µg/mL) was 800.45 ± 12.50 μmol Fe^2⁺ eq/g.

With COc1cc(/C=C/C(=O)CC(=O)/C=C/c2ccc(O)c(OC)c2)ccc1O [Curcumin] the “effect on SARS-CoV-2 viral titer” value (SARS-CoV-2) was “reduced viral titer”, the IC50 (Vero CCL-81 cells [4]) was 83.2 µg/mL (≈ 226 µM) and the “Dose at fraction affected (Fa)” value (Vero CCL-81 cells [5]; Fa 0.5, 48 h treatment) was 9.421. For the same compound, the “Dose at fraction affected (Fa)” value (Vero CCL-81 cells [5]; Fa 0.75, 48 h treatment) was 20.7718, the “Dose at fraction affected (Fa)” value (Vero CCL-81 cells [5]; Fa 0.9, 48 h treatment) was 45.7973 and the “Dose at fraction affected (Fa)” value (Vero CCL-81 cells [5]; Fa 0.95, 48 h treatment) was 78.4112. For the same compound, the “Dose at fraction affected (Fa)” value (Vero CCL-81 cells [5]; Fa 0.97, 48 h treatment) was 114.960.
